Test results published in ChEMBL document CHEMBL5291721, “A preclinical secondary pharmacology resource illuminates target-adverse drug reaction associations of marketed drugs” (Nat Commun, 2023).

What was measured:
[1] = target: T1, Alpha-2A adrenergic receptor (Homo sapiens, UniProt P08913)
T1 sequence (P08913 whole entry): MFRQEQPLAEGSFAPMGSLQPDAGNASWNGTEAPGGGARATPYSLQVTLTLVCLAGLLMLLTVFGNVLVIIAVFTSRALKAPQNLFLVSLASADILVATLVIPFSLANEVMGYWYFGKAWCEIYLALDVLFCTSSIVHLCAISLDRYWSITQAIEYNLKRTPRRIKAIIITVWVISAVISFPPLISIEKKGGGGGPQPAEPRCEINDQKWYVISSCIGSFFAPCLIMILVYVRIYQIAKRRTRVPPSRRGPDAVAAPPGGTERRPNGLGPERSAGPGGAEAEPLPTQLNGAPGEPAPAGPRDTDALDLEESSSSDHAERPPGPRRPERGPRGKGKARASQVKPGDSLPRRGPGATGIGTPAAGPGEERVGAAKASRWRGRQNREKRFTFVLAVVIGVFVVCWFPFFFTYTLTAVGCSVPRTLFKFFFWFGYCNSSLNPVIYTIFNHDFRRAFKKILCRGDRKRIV

[2] = target: T2, Progesterone receptor (Homo sapiens, UniProt P06401)
T2 sequence (P06401 whole entry): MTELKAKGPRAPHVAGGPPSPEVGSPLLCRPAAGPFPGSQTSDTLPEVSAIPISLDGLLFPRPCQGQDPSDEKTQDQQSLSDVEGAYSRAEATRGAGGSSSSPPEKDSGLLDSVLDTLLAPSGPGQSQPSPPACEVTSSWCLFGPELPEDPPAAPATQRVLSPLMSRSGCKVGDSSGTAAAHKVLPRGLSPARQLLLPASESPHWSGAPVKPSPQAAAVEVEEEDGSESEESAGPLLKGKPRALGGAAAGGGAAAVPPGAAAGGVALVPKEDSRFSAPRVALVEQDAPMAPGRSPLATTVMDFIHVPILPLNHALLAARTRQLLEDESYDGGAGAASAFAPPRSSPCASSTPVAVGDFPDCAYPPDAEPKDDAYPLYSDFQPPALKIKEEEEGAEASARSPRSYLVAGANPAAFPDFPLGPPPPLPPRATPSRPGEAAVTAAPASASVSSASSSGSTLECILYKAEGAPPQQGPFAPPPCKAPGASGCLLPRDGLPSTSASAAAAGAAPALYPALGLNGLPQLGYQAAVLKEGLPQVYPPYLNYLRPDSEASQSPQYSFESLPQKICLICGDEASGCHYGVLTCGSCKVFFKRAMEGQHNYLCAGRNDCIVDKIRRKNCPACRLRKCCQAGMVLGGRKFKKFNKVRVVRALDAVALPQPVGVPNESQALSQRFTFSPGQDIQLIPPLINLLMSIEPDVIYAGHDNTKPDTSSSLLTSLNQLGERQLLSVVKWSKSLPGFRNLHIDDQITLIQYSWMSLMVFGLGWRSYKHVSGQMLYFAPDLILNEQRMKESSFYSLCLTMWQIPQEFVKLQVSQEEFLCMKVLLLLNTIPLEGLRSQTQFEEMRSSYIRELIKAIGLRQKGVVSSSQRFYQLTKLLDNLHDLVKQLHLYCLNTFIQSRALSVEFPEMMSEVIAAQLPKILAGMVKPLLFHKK

[3] = target: Sodium-dependent serotonin transporter (Homo sapiens, UniProt P31645)
Sodium-dependent serotonin transporter, sequence (P31645 whole entry): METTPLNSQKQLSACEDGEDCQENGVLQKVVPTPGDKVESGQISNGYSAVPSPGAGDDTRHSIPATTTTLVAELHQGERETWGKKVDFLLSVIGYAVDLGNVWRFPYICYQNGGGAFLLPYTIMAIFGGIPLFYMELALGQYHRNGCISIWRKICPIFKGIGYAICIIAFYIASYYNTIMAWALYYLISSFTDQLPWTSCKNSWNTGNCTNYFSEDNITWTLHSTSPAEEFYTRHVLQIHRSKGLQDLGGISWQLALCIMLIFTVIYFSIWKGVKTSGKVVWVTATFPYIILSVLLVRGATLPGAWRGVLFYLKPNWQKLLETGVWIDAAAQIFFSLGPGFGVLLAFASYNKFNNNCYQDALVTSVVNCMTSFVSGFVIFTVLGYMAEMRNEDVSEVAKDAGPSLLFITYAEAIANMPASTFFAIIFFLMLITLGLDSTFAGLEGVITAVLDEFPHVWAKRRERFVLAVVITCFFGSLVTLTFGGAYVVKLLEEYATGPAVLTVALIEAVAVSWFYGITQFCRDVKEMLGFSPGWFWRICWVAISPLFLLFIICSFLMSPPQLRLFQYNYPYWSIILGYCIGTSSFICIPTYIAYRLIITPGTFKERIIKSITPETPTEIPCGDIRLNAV

[4] = target: T3, Gastrin/cholecystokinin type B receptor (Homo sapiens, UniProt P32239)
T3 sequence (P32239 whole entry): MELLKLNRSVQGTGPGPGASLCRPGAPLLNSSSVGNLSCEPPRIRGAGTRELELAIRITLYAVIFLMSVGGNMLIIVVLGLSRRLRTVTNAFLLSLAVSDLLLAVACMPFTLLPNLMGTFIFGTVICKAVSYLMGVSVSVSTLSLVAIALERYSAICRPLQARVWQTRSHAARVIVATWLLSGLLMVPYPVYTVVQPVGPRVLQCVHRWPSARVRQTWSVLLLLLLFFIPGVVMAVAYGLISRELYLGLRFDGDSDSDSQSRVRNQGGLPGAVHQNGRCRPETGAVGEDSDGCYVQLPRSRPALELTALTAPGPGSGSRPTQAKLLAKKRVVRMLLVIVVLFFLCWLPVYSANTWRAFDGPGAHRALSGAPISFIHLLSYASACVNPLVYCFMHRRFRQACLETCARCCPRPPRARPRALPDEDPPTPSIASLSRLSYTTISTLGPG

[5] = target: 5-hydroxytryptamine receptor 2B (Homo sapiens, UniProt P41595); assay type: functional, cell-based
5-hydroxytryptamine receptor 2B, sequence (P41595 whole entry): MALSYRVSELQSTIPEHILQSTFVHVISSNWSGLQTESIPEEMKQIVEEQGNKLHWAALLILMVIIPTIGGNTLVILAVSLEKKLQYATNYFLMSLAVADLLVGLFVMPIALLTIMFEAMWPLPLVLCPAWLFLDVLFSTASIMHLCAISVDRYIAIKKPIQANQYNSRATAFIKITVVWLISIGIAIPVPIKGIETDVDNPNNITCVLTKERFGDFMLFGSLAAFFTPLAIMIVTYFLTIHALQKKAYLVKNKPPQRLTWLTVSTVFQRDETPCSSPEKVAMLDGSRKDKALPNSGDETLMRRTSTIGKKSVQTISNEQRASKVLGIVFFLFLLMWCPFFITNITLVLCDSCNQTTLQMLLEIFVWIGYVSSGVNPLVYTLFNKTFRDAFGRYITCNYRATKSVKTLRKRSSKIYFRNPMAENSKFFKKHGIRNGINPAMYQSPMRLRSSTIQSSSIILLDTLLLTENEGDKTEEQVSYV

[6] = target: T4, 5-hydroxytryptamine receptor 1A (Homo sapiens, UniProt P08908); assay type: functional, cell-based
T4 sequence (P08908 whole entry): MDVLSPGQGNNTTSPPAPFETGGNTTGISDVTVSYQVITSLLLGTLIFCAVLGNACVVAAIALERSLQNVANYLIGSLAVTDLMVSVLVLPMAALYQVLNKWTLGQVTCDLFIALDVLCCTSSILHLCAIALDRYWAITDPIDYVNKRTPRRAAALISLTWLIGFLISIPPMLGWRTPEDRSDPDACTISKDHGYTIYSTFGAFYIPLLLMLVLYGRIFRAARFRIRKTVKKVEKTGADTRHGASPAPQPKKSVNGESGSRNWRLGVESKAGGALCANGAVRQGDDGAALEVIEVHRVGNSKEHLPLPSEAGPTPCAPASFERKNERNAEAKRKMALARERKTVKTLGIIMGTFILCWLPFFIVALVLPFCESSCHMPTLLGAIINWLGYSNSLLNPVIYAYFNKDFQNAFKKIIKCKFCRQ

[7] = target: Gamma-aminobutyric acid receptor subunit alpha-1 (Rattus norvegicus, UniProt P62813)
Gamma-aminobutyric acid receptor subunit alpha-1, sequence (P62813 whole entry): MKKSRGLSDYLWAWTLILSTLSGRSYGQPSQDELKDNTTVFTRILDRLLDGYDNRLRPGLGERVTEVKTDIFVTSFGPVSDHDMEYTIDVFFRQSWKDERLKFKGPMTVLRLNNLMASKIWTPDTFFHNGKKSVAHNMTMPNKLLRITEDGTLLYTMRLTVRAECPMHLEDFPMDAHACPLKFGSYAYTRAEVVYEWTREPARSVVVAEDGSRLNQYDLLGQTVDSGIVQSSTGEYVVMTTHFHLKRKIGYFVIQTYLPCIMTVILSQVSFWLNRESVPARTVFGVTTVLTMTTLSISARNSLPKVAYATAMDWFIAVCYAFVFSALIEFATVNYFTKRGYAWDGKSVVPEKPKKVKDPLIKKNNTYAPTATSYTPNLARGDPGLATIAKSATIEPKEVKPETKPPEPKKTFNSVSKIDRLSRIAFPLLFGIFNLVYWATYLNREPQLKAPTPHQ

[8] = target: Adenosine receptor A2a (Homo sapiens, UniProt P29274)
Adenosine receptor A2a, sequence (P29274 whole entry): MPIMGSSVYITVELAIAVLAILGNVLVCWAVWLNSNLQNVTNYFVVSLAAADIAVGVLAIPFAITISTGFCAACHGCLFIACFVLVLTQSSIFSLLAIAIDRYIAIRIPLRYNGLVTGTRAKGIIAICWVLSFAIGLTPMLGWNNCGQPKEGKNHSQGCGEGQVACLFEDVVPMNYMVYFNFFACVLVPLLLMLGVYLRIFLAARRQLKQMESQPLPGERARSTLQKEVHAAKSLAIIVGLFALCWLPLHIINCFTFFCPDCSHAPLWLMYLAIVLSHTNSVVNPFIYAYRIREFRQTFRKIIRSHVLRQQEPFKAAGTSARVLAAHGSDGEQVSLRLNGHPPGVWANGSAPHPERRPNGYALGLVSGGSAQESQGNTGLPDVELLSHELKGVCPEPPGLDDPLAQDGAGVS

[9] = target: Beta-1 adrenergic receptor (Homo sapiens, UniProt P08588); assay type: functional
Beta-1 adrenergic receptor, sequence (P08588 whole entry): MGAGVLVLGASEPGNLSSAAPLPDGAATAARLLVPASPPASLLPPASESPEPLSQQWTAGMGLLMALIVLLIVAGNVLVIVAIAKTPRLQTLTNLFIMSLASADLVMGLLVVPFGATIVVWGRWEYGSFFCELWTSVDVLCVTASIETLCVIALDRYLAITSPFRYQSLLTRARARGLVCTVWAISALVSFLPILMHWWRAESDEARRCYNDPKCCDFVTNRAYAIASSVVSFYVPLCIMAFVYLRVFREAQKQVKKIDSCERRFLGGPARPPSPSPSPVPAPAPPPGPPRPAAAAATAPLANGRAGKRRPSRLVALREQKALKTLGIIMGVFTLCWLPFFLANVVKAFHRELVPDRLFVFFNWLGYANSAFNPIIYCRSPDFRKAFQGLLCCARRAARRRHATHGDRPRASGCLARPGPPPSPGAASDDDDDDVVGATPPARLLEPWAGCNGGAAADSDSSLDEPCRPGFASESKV
Also: assay procedure not described here.

## C=C1c2c(Cl)ccc(O)c2C(=O)C2=C(O)[C@]3(O)C(=O)C(C(N)=O)=C(O)[C@@H](N(C)C)[C@@H]3[C@@H](O)[C@H]12 [MECLOCYCLINE]
[1]
  AC50: > 30 µM
[2]
  AC50: > 30 µM
[3]
  AC50: > 30 µM

## NC(=O)c1nc(F)c[nH]c1=O
[1]
  AC50: > 30 µM
[2]
  AC50: > 30 µM
[3]
  AC50: > 30 µM

## O=C(Nc1cccc2c(=O)cc(-c3nnn[nH]3)oc12)c1ccc(OCCCCc2ccccc2)cc1
[1]
  AC50: > 30 µM
[2]
  AC50: 6.23 µM

## N=C(N)NCc1cccc([123I])c1 [IOBENGUANE I 123]
[1]
  AC50: 0.488 µM
[2]
  AC50: > 30 µM
[3]
  AC50: > 30 µM

## CN(C)C(=O)c1nc(CNC(=O)CN)n(-c2ccc(Cl)cc2C(=O)c2ccccc2Cl)n1 [RILMAZAFONE]
[1]
  AC50: > 30 µM
[2]
  AC50: > 30 µM
[3]
  AC50: > 30 µM

## COc1nccnc1NS(=O)(=O)c1ccc(N)cc1
[1]
  AC50: > 30 µM
[3]
  AC50: > 30 µM

## CC(C)(C)C(=O)NCCCC(=O)O [PIVAGABINE]
[1]
  AC50: > 30 µM
[3]
  AC50: > 30 µM

## CN(CC(=O)O)C(=N)N [CREATINE]
[1]
  AC50: > 30 µM
[2]
  AC50: > 30 µM
[3]
  AC50: > 30 µM

## CN(C)CCN(Cc1ccc(Cl)cc1)c1ccccn1 [CHLOROPYRAMINE]
[1]
  AC50: 12.2 µM
[2]
  AC50: > 30 µM
[3]
  AC50: 0.0202 µM

## O=C1[C@H]2CCCC[C@H]2C(=O)N1CCCCN1CCN(c2nsc3ccccc23)CC1 [PEROSPIRONE]
[1]
  AC50: 0.22 µM
[2]
  AC50: > 30 µM
[3]
  AC50: 3.73 µM

## CC(C)(N)C(=O)N[C@H](Cc1c[nH]c2ccccc12)C(=O)N[C@H](Cc1c[nH]c2ccccc12)NC=O [MACIMORELIN]
[1]
  AC50: > 30 µM
[2]
  AC50: > 30 µM
[3]
  AC50: > 30 µM

## O=C(O)c1cc(=O)c2ccccc2o1 [CHROMOCARB]
[1]
  AC50: > 30 µM
[2]
  AC50: > 30 µM
[3]
  AC50: > 30 µM

## CN1CCC[C@H]1c1cccnc1 [NICOTINE]
[1]
  AC50: > 30 µM
[2]
  AC50: > 30 µM

## CC1(C)O[C@@H]2C[C@H]3[C@@H]4CCC5=CC(=O)CC[C@]5(C)[C@@]4(F)[C@@H](O)C[C@]3(C)[C@]2(C(=O)CCl)O1 [HALCINONIDE]
[1]
  AC50: > 30 µM
[2]
  AC50: 0.003 µM

## CN(C)CCC(c1ccccc1)c1ccccn1 (stereo not given) [PHENIRAMINE]
[1]
  AC50: > 30 µM
[2]
  AC50: > 30 µM
[3]
  AC50: 7.98 µM

## Cc1cc2c(OCC(O)CNC(C)C)cccc2[nH]1 (stereo not given) [MEPINDOLOL]
[1]
  AC50: 12.3 µM
[2]
  AC50: > 30 µM
[3]
  AC50: > 30 µM

## C[C@]12CCC(=O)C=C1CC[C@@H]1[C@@H]2[C@@H](O)C[C@@]2(C)[C@H]1CC[C@]2(O)C(=O)COC(=O)CCC(=O)O [HYDROCORTISONE HEMISUCCINATE ANHYDROUS]
[1]
  AC50: > 30 µM
[2]
  AC50: > 30 µM
[3]
  AC50: > 30 µM

## N[C@@H](CSSC[C@H](N)C(=O)O)C(=O)O [CYSTINE]
[1]
  AC50: > 30 µM
[2]
  AC50: > 30 µM
[3]
  AC50: > 30 µM

## C#C[C@]1(O)CC[C@H]2[C@@H]3CCC4=C(CCC(=O)C4)[C@H]3CC[C@@]21C [NORETHYNODREL]
[1]
  AC50: > 30 µM

## CN1CCC[C@@H]1Cc1c[nH]c2ccc(CCS(=O)(=O)c3ccccc3)cc12
[1]
  AC50: 7.51 µM
[2]
  AC50: > 30 µM
[3]
  AC50: > 30 µM

## O=S(=O)(O)CCS [2-MERCAPTOETHANESULFONIC ACID]
[1]
  AC50: > 30 µM
[2]
  AC50: > 30 µM

## CNC[C@H](O)c1cccc(O)c1 [PHENYLEPHRINE]
[4]
  AC50: > 30 µM
[5]
  AC50: > 30 µM
[6]
  AC50: > 30 µM
[2]
  AC50: > 30 µM
[7]
  AC50: > 30 µM
[8]
  AC50: > 30 µM
[3]
  AC50: > 30 µM

## CCCCCCCCCCCCCCCC(=O)OC/C=C(C)/C=C/C=C(C)/C=C/C1=C(C)CCCC1(C)C [VITAMIN A PALMITATE]
[1]
  AC50: > 30 µM
[2]
  AC50: > 30 µM
[3]
  AC50: > 30 µM

## CCOc1cc(N)c(Cl)cc1C(=O)NCC1CN(Cc2ccc(F)cc2)CCO1 (stereo not given) [MOSAPRIDE]
[1]
  AC50: 3.01 µM
[2]
  AC50: > 30 µM

## CCCCNc1ccc(C(=O)OCCN(C)C)cc1 [TETRACAINE]
[4]
  AC50: > 30 µM
[9]
  AC50: > 10 µM
[5]
  AC50: > 10 µM
[1]
  AC50: > 30 µM
[6]
  AC50: > 10 µM
[2]
  AC50: > 30 µM
[7]
  AC50: > 10 µM
[8]
  AC50: > 30 µM
